Measurements reported in PMC8778818, “Synthesis, Structural Characterization and Anticancer Activity of New 5-Trifluoromethyl-2-thioxo-thiazolo[4,5-d]pyrimidine Derivatives” (Pharmaceuticals, 2022).

How the values were obtained:
Type in all cases: cell-based, human
[1] = tested on: OVCAR-5; assay: NCI-60 screen, Ovarian Cancer OVCAR-5; conditions: for Growth of Cells (%): OVCAR-5, 10^−5 M one dose
[2] = tested on: HaCaT; assay: MTT cell viability assay, HaCaT; conditions: Homo sapiens; HaCaT normal cells, MTT, 72 h, mean ± SD
Experimental: Twelve compounds (2a-e, 3a-d and 4a-c) at a concentration range of 50–5000 μM were tested for their antiproliferative potential against four human cancer cell lines (A375—melanotic melanoma, C32—amelanotic melanoma, DU145—prostate cancer androgen-independent, MCF-7/WT—breast adenocarcinoma) and two normal cell lines: Chinese Hamster Ovary (CHO-K1) and immortalized human keratinocytes from histologically normal skin (HaCaT).
To determine the antiproliferative activity of newly synthesized compounds, the following cell lines were used: human melanotic melanoma cell line (A375), human amelanotic melanoma cell line (C32), human breast adenocarcinoma cell line (MCF-7/WT), human prostate cancer androgen-independent (DU145) and two normal cell lines: hamster ovarian (CHO-K1) and immortalized human keratinocytes from histologically normal skin (HaCaT). The cells were obtained from the cell line bank of the Department of Molecular and Cellular Biology, Wroclaw Medical University. A375, C32, MCF-7/WT, DU145 and HaCaT cells were grown in a monolayer cultured in Dulbecco’s Modified Eagle’s Medium (DMEM, Sigma-Aldrich, Poznań, Poland), supplemented with 10% of fetal bovine serum (FBS, Gibco, Paisley, UK) and 1% of antibiotics (penicillin/streptomycin, Sigma-Aldrich) and CHO-K1 were grown in HAM’s F-12 medium (Sigma-Aldrich), supplemented with 10% fetal bovine serum (FBS, Gibco) and 1% of antibiotics (penicillin/streptomycin, Sigma-Aldrich). Cell lines were cultured in the polystyrene flasks 25 or 75 cm^2 (Thermo Fisher Scientific, Waltham, MA, USA), which were stored in 37 °C and 5% CO2 in a humidified 95% atmosphere (SteriCult, Thermo Scientific, Alab). The cell medium was exchanged twice a week. The exponentially growing cells were used throughout the experiments. The cells were rinsed with phosphate-buffered saline (PBS, Sigma-Aldrich) and trypsinized by Trypsin-EDTA 0.25% solution (Sigma-Aldrich).
The influence of the compounds was performed in a monolayer culture on cancer and normal cells. Compounds were initially dissolved in DMSO; further dilutions of the compound were performed in Dulbecco’s Modified Eagle’s Medium supplemented with 10% FBS. Compounds were tested in a 50–5000 µM concentration range. In the in vitro experiments, the concentrations of DMSO in the final solution of the compounds were used 0.05%; 0.1%; 0.5%; 1%, respectively.
Cell viability was determined using the MTT colorimetric assay. All cell lines were seeded into 96-well plates to a density of 3 × 10^4 cells/well. After 24 h, the culture supernatants were removed and appropriate dilutions of compounds in the culture medium (200 µL/well) were added to the cells’ monolayer cultures and incubated for an additional 72 h. After 72 h of exposition to the compounds and the removal of the culture medium, cell viability was determined by reducing the yellow dye 3-(4,5-dimethyl-2-thiazol)-2,5-diphenyl-2H-tetrazolium bromide (MTT assay, Sigma Saint Louis, MO, USA; In Vitro Toxicology Assay) to a blue formazan product. The absorbance of the resulting solutions in three duplicate experiments was measured at the wavelength of 560 nm in a microplate reader (EnSpire, Perkin Elmer, Kraków, Poland). MTT assay is a colorimetric method that estimates the rate of metabolism in viable cells. Absorbance is directly proportional to the number of viable cells. All the experiments were performed three times and the mean absorbance values were calculated. The methodology for the evaluation of the growth of human cancer and normal cells was described previously. The cell viability in each group was expressed as a percentage of control (untreated) cells.

[3] = tested on: MDA-MB-468; assay: NCI-60 screen, Breast Cancer MDA-MB-468; conditions: for Growth of Cells (%): MDA-MB-468, 10^−5 M one dose
Experimental: The search for the cytotoxic activity of new derivatives usually starts with in vitro cell-based screening. Four compounds 2b (NSC D-745983/1), 3b (NSC D-766111/1), 4b (NSC D-785591/1) and 4c (NSC D-771706/1), selected by the National Cancer Institute were tested in the anticancer screen for a panel of approximately 60 human disease-oriented tumor cell lines, organized into subpanels derived from nine human cancer types—leukemia, melanoma, and cancers of the lung, colon, brain, breast, ovary, prostate, and kidney. They were initially tested at only one concentration of 10 µM (10^−5 M) for each cell line, which were inoculated and preincubated on a microtiter plate for […]. The results of the one-dose anticancer assay for the tested new compounds are reported as the percentage of the treated cell growth in comparison with untreated no-drug control. This allows for detection of the growth inhibition—values 0–100 and cytotoxicity; negative numbers mean cell death.
Antitumor activity in five dose testing (10^−4−10^−8 M) is expressed by three different dose–response parameters for each of the 60 human tumor cell lines. The GI50 value (molar concentration causing a half-growth inhibition), TGI (molar concentration required for total growth inhibition), which signifies the cytostatic effect, and LC50 (molar concentration of the compound required for 50% cell death). LC50 signifies the cytotoxic effect. […] Nevertheless, the selectivity for GI50 can be seen for several cell lines within subpanel leukemia (SR, log GI50 −6.36) and non-small cell lung cancer (NCI-H522, log GI50 −6.69).
The antitumor screening (NCI-60) was performed at the National Cancer Institute, Bethesda, USA. A total panel of approximately 60 human tumor cell lines derived from nine different cancer types (leukemia, non-small cell lung, colon, brain, melanoma, ovarian, renal, prostate and breast) formed the basis of this in vitro test. The origins and processing of the cell lines used in the study were described previously. First, the compounds were evaluated in a primary anticancer assay at 10^−5 M. Results for each tested compound are reported as the percent of growth of the treated cells. […] The human tumor cell lines of the cancer screening panel were grown in an RMPI 1640 medium containing 5% fetal bovine serum and 2 mM of L-glutamine. Each cell line was inoculated and preincubated at 37 °C, 5% CO2, 95% air and 100% relative humidity for 24 h, before the addition of the test compound into 96-well microtiter plates in 100 µL at plating densities ranging from 5000 to 40,000 cells/well. The density of inoculum depends on the type of tumor cell and its growth characteristics. The screened compounds were solubilized in dimethyl sulfoxide at 400-fold the desired final concentration and stored frozen. At the time of the test agents’ addition, an aliquot of frozen concentrate was thawed and diluted to twice the desired final concentration with complete medium containing 50 µg/mL gentamicin. Next, the test compounds were evaluated at the four additional 10-fold dilutions to reach the final concentrations plus control. Aliquots of 100 µL of the different dilutions (100, 10, 1, […] µM/mL) of the tested compounds were added to microtiter wells, and the culture was incubated for 48 h under the same conditions. Cell were fixed in situ by the addition of 50 µL of cold 50% trichloroacetic acid and incubated for 60 min at 4 °C. The supernatant was discarded; plates were washed five times with water and air-dried. Sulforhodamine B at 0.4% in 1% acetic acid, 100 µL, was added to each well, then plates were incubated for 10 min at room temperature. Unbound dye was removed by washing five times with 1% acetic acid and air dried. The protein-bound stain was solubilized with a […] trizma base and the absorbance was read on an automated plate reader. A wavelength of 515 nm was used to read optical densities. […]

Compound	Growth of Cells (%) [1] [%]	IC50 [2] [µM]	Growth of Cells (%) [3] [%]	GI50 ([1]; Homo sapiens, OVCAR-5, five doses 10^−4–10^−8 M) [µM]	CC50 ([1]; Homo sapiens, OVCAR-5, five doses 10^−4–10^−8 M, read-out: log LC50 (the source's name) (converted)) [µM]	log TGI ([1]; OVCAR-5, five doses 10^−4–10^−8 M) [log M]	GI50 ([3]; Homo sapiens, MDA-MB-468, five doses 10^−4–10^−8 M) [µM]	CC50 ([3]; Homo sapiens, MDA-MB-468, five doses 10^−4–10^−8 M, read-out: log LC50 (the source's name) (converted)) [µM]	log TGI ([3]; MDA-MB-468, five doses 10^−4–10^−8 M) [log M]
O=c1[nH]c(C(F)(F)F)nc2c1sc(=S)n2-c1ccccc1 [Compound 2b, 3-phenyl-2-thioxo-5-(trifluoromethyl)-2,3-dihydro[1, 3]thiazolo[4,5-d]pyrimidin-7(6H)-one]	101.99	712 ± 29.3	91.37	–	–	–	–	–	–
FC(F)(F)c1nc(Cl)c2sc(=S)n(-c3ccccc3)c2n1 [Compound 3b, 7-chloro-3-phenyl-5-(trifluoromethyl)[1, 3]thiazolo[4,5-d]pyrimidine-2(3H)-thione]	86.56	33.5 ± 0.7	54.38	8.71	64.6	−4.60	1.7	7.41	−5.45
CCNc1nc(C(F)(F)F)nc2c1sc(=S)n2-c1ccccc1 [Compound 4b, 7-(ethylamino)-3-phenyl-5-(trifluoromethyl)[1, 3]thiazolo[4,5-d]pyrimidine-2(3H)-thione]	112.27	730 ± 31.1	81.60	–	–	–	–	–	–
Fc1ccc(CNc2nc(C(F)(F)F)nc3c2sc(=S)n3-c2ccccc2)cc1 [Compound 4c]	102.72	565 ± 24.7	96.15	–	–	–	–	–	–
